Consider four compounds from article PMC7037682, “Herb–Drug Interaction of Red Ginseng Extract and Ginsenoside Rc with Valsartan in Rats” (Molecules, 2020).

Data set [1] can be described thus: in vivo. The conditions noted are these: rat, iv, 1 mg/kg. The procedure: The rats were randomly divided into the control and rifampin groups. […] Quantification was performed in the selected reaction-monitoring mode at m/z 436.1 → 291.0 for valsartan and m/z 336.1 → 320.0 for berberine. […] The intraday and interday precision ranged from 1.80% to 9.23%.
The nature of data set [2]: in vivo. Conditions: rat, iv, 1 mg/kg. The procedure: Quantification was performed in the selected reaction-monitoring mode at m/z 436.1 → 291.0 for valsartan and m/z 336.1 → 320.0 for berberine. […] The intraday and interday precision ranged from 1.80% to 9.23%.
This is another data set of the same source.

The nature of data set [3]: Pharmacokinetics of iv valsartan in rats with or without repeated iv Rc. Conditions: rat, plasma, 1 mg/kg, valsartan 1 mg/kg iv; for AUC(0-t): read-out: AUC24h. The data set is classed as in vivo. The method, then:
The rats were randomly divided into the control and Rc groups. The Rc group was injected with Rc solution (3 mg/mL/kg, dissolved in saline) intravenously via the tail vein for 5 consecutive days. The control group received saline (1 mL/kg) for 5 consecutive days via the tail vein. […] Quantification was performed in the selected reaction-monitoring mode at m/z 436.1 → 291.0 for valsartan and m/z 336.1 → 320.0 for berberine. […] The intraday and interday precision ranged from 1.80% to 9.23%.

Data set [4] relates to Oatps. The conditions noted are these: rats ref 29, 30; cited from earlier work.
The test system of data set [5] is OATP1B1 and OATP1B3. The conditions noted are these: human ref 29, 30; cited from earlier work.
Data set [6] addresses T1, OATP1B1 (Homo sapiens, UniProt Q9Y6L6).
T1 sequence (Q9Y6L6 1-691): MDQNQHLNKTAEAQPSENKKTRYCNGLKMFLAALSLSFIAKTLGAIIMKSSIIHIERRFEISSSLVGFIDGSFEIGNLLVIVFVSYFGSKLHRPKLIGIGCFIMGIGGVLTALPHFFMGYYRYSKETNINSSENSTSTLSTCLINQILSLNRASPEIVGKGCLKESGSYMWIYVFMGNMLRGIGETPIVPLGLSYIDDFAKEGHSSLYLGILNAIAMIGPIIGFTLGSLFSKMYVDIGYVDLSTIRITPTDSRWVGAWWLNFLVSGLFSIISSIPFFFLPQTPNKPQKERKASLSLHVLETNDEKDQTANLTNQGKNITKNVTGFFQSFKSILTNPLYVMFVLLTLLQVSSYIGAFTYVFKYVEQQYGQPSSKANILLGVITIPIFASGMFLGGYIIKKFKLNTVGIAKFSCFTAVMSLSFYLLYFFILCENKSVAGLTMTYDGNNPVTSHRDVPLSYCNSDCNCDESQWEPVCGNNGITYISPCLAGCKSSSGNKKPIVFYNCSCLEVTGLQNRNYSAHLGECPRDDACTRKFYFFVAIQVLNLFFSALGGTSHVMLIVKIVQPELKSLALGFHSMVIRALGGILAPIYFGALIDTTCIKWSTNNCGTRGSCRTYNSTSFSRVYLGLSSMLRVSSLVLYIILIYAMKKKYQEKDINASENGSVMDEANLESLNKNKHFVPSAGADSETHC
Briefly: Valsartan uptake by HEK293-OATP1B1 cells versus mock cells. In kind it is cell-based. On the set-up: host or cells: HEK293. The conditions noted are these: 5 μM valsartan. The method, then:
(§1) The uptake of valsartan 5 (μM)was measured for 5 min immediately after adding aliquots (100 μL) of HBSS containing 5 μM valsartan in the presence or absence of rifampin (1–100 μM) or tri-glycosylated PPD-type ginsenosides (Rb1, Rb2, and Rc; 0.1–100 μM) to the HEK293-mock cells and HEK293-OATP1B1 and –OAPT1B3 cells after aspirating pre-incubated HBSS. […] After the centrifugation of cell lysate samples (16,000× g, 5 min, 4 °C), aliquots (4 μL) of cell lysate samples were injected into LC-MS/MS system for the analysis of valsartan. Transporter mediated uptake of probe substrates or valsartan was calculated by subtracting the uptake rate of probe substrates or valsartan into HEK293-mock cells from that into HEK293 cells expressing respective transporters.

Data set [7] addresses T2, OATP1B3 (Homo sapiens, UniProt Q9NPD5).
T2 sequence (Q9NPD5 1-702): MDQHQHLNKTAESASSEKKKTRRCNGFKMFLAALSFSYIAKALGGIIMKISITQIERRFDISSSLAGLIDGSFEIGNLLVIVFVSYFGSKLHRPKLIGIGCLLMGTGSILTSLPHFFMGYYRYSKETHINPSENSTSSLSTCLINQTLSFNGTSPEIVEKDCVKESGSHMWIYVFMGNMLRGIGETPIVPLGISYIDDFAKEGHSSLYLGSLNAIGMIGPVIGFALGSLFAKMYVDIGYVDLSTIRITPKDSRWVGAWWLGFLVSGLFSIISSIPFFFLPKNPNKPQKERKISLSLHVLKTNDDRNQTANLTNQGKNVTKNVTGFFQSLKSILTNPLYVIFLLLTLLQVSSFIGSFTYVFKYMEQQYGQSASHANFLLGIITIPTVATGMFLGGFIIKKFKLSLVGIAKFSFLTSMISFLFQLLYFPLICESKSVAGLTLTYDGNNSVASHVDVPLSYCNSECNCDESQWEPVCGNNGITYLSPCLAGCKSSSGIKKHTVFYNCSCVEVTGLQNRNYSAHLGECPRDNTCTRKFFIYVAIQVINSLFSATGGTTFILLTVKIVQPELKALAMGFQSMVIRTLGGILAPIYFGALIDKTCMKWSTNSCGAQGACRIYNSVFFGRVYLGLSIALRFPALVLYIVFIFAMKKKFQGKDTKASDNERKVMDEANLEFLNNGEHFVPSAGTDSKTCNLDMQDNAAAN
Briefly: Valsartan uptake by HEK293-OATP1B3 cells versus mock cells. The data set is classed as cell-based. The arrangement: host or cells: HEK293. The conditions noted are these: 5 μM valsartan. The method, then:
as §1

Data set [8] is described as follows: Plasma pharmacokinetics of ginsenosides in rats after 1-week repeated RGE. Conditions: LC-MS/MS, after RGE 1.5 g/kg/day po for 1 week. The procedure:
The rats were randomly divided into the control and RGE groups. The RGE group received a RGE suspension (1.5 g/mL/kg/day, in distilled water) for 7 days via oral gavage. The control group received distilled water for 7 days via oral gavage. After 1 h following the last RGE treatment, valsartan was injected intravenously to both groups via the tail vein at 1 mg/mL/kg (dissolved in DMSO: saline = 2:8, v/v). […] After centrifugation of the blood samples at 16,000× g for 10 min, aliquots (50 μL each) of plasma samples were stored at −80 °C until the analysis of ginsenosides and valsartan.
The residue was reconstituted with 100 μL of 70% methanol consisting of 0.1% formic acid. An aliquot (20 μL) from the sample was injected into the LC-MS/MS system.
After freezing the aqueous layer at −80 °C for 2 h, the upper organic layer was transferred to a clean tube and evaporated to dryness. […] An aliquot (20 μL) from the sample was injected into the LC-MS/MS system. The samples were eluted through an Omega Polar C18 column (2.1 mm × 100 mm, 3 µm particle size) (Phenomenex, Torrance, CA, USA) using a mobile phase consisting of 0.1% formic acid in water: 0.1% formic acid in methanol (15:85, v/v) at a flow rate of 0.2 mL/min.
Pharmacokinetic parameters were calculated from plasma concentration-time profile using non-compartment analysis of WinNonlin (version 5.1; Pharsights, Cary, NC, USA). The statistical significance was assessed by t-test using Statistical Package for the Social Sciences (version 24.0; SPSS Inc., Chicago, IL, USA).

Data set [9] relates to UGT1A9. Conditions: cited from earlier work.
The mark [10] stands for this setting: after Rc 3 mg/kg/day iv for 5 days.

`CCCCC(=O)N(Cc1ccc(-c2ccccc2-c2nnn[nH]2)cc1)[C@H](C(=O)O)C(C)C` [Valsartan, valsartan]: the C0 in data set [1] came to 1633.08 ± 1308.67 ng/mL; in data set [1] (C0) it was 1170 ± 119 ng/mL; in data set [2], 781.47 ± 211.04 ng/mL; in data set [2] (C0) it was 648 ± 50.5 ng/mL; in data set [3] (setting [10]) it was 1450 ± 998 ng/mL; in data set [3] (control group of Rc study), 401 ± 77.8 ng/mL. The mean residence time MRT in data set [1] was 3.37 ± 0.83 h; in data set [1] (MRT) it was 2.99 ± 0.47 h; in [2], 3.81 ± 0.05 h; in data set [2] (MRT), 3.76 ± 1.16 h; in [3] (setting [10]), 2.94 ± 1.52 h; in data set [3] (control group of Rc study), 2.27 ± 0.67 h. Also, the T1/2 in data set [1] is listed as 2.79 ± 0.32 h; in data set [2], 4.59 ± 0.73 h. In addition, the Vd in data set [1] was 0.05503 ± 0.02629 L/kg; in [1] (Vd), 4.7 ± 1.54 L/kg; in [2] it was 0.08538 ± 0.02582 L/kg; in data set [2] (Vd) it was 4.33 ± 0.922 L/kg; in data set [3] (setting [10]), 3.46 ± 1.64 L/kg; in data set [3] (control group of Rc study), 3.43 ± 0.794 L/kg. Moreover, the clearance in data set [1] (CL) stood at 26 ± 6.3 mL/min/kg; in data set [2] (CL), 20 ± 5.48 mL/min/kg; in [3] (setting [10]), 20.2 ± 2.86 mL/min/kg; in data set [3] (control group of Rc study), 25.7 ± 3.5 mL/min/kg. Further, the half-life in data set [1] (T1/2) is 4.48 ± 1.24 h; in [2] (T1/2), 4.55 ± 0.98 h; in data set [3] (setting [10]) it was 3.3 ± 1.51 h; in data set [3] (control group of Rc study), 2.41 ± 1.3 h. This compound returned an AUC24h in data set [2] of 776.59 ± 228.82 ng·h/mL. For the same compound, the AUC(0-t) in [2] (AUC24h) is 859 ± 234 ng·h/mL; in data set [3] (setting [10]) it was 809 ± 112 ng·h/mL; in data set [3] (control group of Rc study), 639 ± 80.7 ng·h/mL. In addition, the AUC(0-inf) in [2] (AUC∞) was 882 ± 247 ng·h/mL; in [3] (setting [10]), 836 ± 112 ng·h/mL; in data set [3] (control group of Rc study) it was 657 ± 84.9 ng·h/mL. Further, the “contribution of Oatp transporters in the hepato-biliary excretion” value in data set [4] and in data set [5] was 70–85% in each case. Besides, the “Valsartan uptake increase, HEK293-OATP1B1 vs HEK293-mock” value in data set [6] amounted to 19.8 fold. Also, in [7], the “Valsartan uptake increase, HEK293-OATP1B3 vs HEK293-mock” value is given as 26.1 fold.

For the compound `CC(C)=CCC[C@](C)(O[C@@H]1O[C@H](CO)[C@@H](O)[C@H](O)[C@H]1O)[C@H]1CC[C@]2(C)[C@@H]1[C@H](O)C[C@@H]1[C@@]3(C)CC[C@H](O)C(C)(C)[C@@H]3[C@@H](O)C[C@]12C` [F1], the “detection in rat plasma” value in data set [8] is “not detected”. Also, the “IC50 UGT1A9” value in data set [9] is reported as “did not inhibit”.

As to `CC(C)=CCC[C@](C)(O)[C@H]1CC[C@]2(C)[C@@H]1[C@H](O)C[C@@H]1[C@@]3(C)CC[C@H](O)C(C)(C)[C@@H]3[C@@H](O[C@@H]3O[C@H](CO)[C@@H](O)[C@H](O)[C@H]3O[C@@H]3O[C@H](CO)[C@@H](O)[C@H](O)[C@H]3O)C[C@]12C` [Rf], in data set [9], the “IC50 UGT1A9” value is given as “did not inhibit”.

As to `CC(C)=CCC[C@](C)(O[C@@H]1O[C@H](CO)[C@@H](O)[C@H](O)[C@H]1O)[C@H]1CC[C@]2(C)[C@@H]1[C@H](O)C[C@@H]1[C@@]3(C)CC[C@H](O[C@@H]4O[C@H](CO)[C@@H](O)[C@H](O)[C@H]4O)C(C)(C)[C@@H]3CC[C@]12C` [F2], the “detection in rat plasma” value in data set [8] is recorded as “not detected”.

Broadly, the MRT is a mean duration of stay, worked out from the concentration-time curve. Broadly, the Vd is the apparent volume that relates the amount in the body to the concentration in plasma or blood. The low end stands for confinement near the circulation, the high end for extensive tissue distribution. As a reminder, the clearance is a measure of how efficiently the substance is removed, as volume per time. In general, half-life refers to the time needed for the level to fall by half in the phase considered. Higher therefore signals slow loss. As usually defined, the AUC(0-inf) is the area under the concentration-time curve extrapolated to infinity. The low end stands for less exposure, the high end for more exposure.
